Earlier results as cited in patent US8647680B2, “Methods and compositions for treatment of lesioned sites of body vessels” (Abbott Cardiovascular Systems Inc., priority 2006, dated 2014).

Assays:
macrophage cells = conditions: oral administration

| SMILES | apoptosis of macrophage cells (macrophage cells) | solubility in water |
| --- | --- | --- |
| N=C(N)NCCC[C@H](N)C(=O)O [L-arginine] | increased apoptosis of macrophage cells |  |
| [N]=O [nitric oxide] |  | 2000 to 3000 µM |
